Laboratory results from the supplement of paper PMC6331611.
≈ marks a conversion by molar mass, not a printed value. Counter-ions that a name gives are not always drawn.

Key:
[1] = system: Salmonella enterica serovar Typhimurium SL1344
[2] = system: Salmonella enterica serovar Typhimurium SL1344; experiment: intracellular MIC (10-fold luminescence reduction); higher = less potent; details: RAW264.7 macrophages
RAW264.7 = experiment: cytotoxicity (LDH release relative to maximum lysis); higher = more toxic; details: 50 µM; 2 h

CC(=O)OC1CN2CCC1CC2 (stereo not given) [ACECLIDINE]
MIC ([1]; LPM pH 5.8): > 50 µM | MIC ([1]; MHB): > 50 µM | MIC ([1]; MOPS glucose minimal medium): > 50 µM | intracellular MIC [2]: > 50 µM | cytotoxicity (RAW264.7): 20.3%

CCOC(=O)C1=C(COCCN)NC(C)=C(C(=O)OC)C1c1ccccc1Cl (stereo not given) [AMLODIPINE BESYLATE]
MIC ([1]; LPM pH 5.8): ≤ 0.78 µM | MIC ([1]; MHB): ≤ 0.78 µM | MIC ([1]; MOPS glucose minimal medium): ≤ 0.78 µM | intracellular MIC [2]: > 50 µM | cytotoxicity (RAW264.7): 22.5%

CO[C@H]1O[C@@H]2O[C@@]3(C)CC[C@H]4[C@H](C)CC[C@@H]([C@H]1C)[C@@]24OO3 [ARTEMETHER]
MIC ([1]; LPM pH 5.8): 50 µM (≈ 14.9 µg/mL) | MIC ([1]; MHB): > 50 µM | MIC ([1]; MOPS glucose minimal medium): > 50 µM | intracellular MIC [2]: 12.5 µM | cytotoxicity (RAW264.7): 7.51%

Nc1ncn([C@@H]2O[C@H](CO)[C@@H](O)[C@H]2O)c(=O)n1 [AZACITIDINE]
MIC ([1]; LPM pH 5.8): ≤ 0.78 µM | MIC ([1]; MHB): 25 µM (≈ 6.11 µg/mL) | MIC ([1]; MOPS glucose minimal medium): ≤ 0.78 µM | intracellular MIC [2]: ≤ 0.78 µM | cytotoxicity (RAW264.7): 16.4%

CC[C@H]1OC(=O)[C@H](C)[C@@H](O[C@H]2C[C@@](C)(OC)[C@@H](O)[C@H](C)O2)[C@H](C)[C@@H](O[C@@H]2O[C@H](C)C[C@H](N(C)C)[C@H]2O)[C@](C)(O)C[C@@H](C)CN(C)[C@H](C)[C@@H](O)[C@]1(C)O [AZITHROMYCIN]
MIC ([1]; LPM pH 5.8): ≤ 0.78 µM | MIC ([1]; MHB): ≤ 0.78 µM | MIC ([1]; MOPS glucose minimal medium): ≤ 0.78 µM | intracellular MIC [2]: ≤ 0.78 µM | cytotoxicity (RAW264.7): 21.1%

C[C@H]1[C@H](NC(=O)/C(=N\OC(C)(C)C(=O)O)c2csc(N)n2)C(=O)N1S(=O)(=O)O [AZTREONAM]
MIC ([1]; LPM pH 5.8): ≤ 0.78 µM | MIC ([1]; MHB): ≤ 0.78 µM | MIC ([1]; MOPS glucose minimal medium): ≤ 0.78 µM | intracellular MIC [2]: 1.56 µM | cytotoxicity (RAW264.7): 6.82%

CCCCC(=O)O[C@]1(C(=O)CO)[C@@H](C)C[C@H]2[C@@H]3CCC4=CC(=O)C=C[C@]4(C)[C@@]3(F)[C@@H](O)C[C@@]21C [BETAMETHASONE VALERATE]
MIC ([1]; LPM pH 5.8): > 50 µM | MIC ([1]; MHB): > 50 µM | MIC ([1]; MOPS glucose minimal medium): > 50 µM | intracellular MIC [2]: 12.5 µM | cytotoxicity (RAW264.7): 6.63%

O=C(CCCN1CCC(O)(c2ccc(Br)cc2)CC1)c1ccc(F)cc1 [BROMPERIDOL]
MIC ([1]; LPM pH 5.8): > 50 µM | MIC ([1]; MHB): > 50 µM | MIC ([1]; MOPS glucose minimal medium): > 50 µM | intracellular MIC [2]: ≤ 0.78 µM | cytotoxicity (RAW264.7): 15%

Oc1c(Br)cc(Br)c2cccnc12 [BROXYQUINOLINE]
MIC ([1]; LPM pH 5.8): ≤ 0.78 µM | MIC ([1]; MHB): 50 µM (≈ 15.1 µg/mL) | MIC ([1]; MOPS glucose minimal medium): 50 µM (≈ 15.1 µg/mL) | intracellular MIC [2]: > 50 µM | cytotoxicity (RAW264.7): 15%

COc1cc(CNC(=O)CCCC/C=C/C(C)C)ccc1O [CAPSAICIN]
MIC ([1]; LPM pH 5.8): > 50 µM | MIC ([1]; MHB): > 50 µM | MIC ([1]; MOPS glucose minimal medium): > 50 µM | intracellular MIC [2]: > 50 µM | cytotoxicity (RAW264.7): 19.5%

COC(=O)N/N=C/c1c[n+]([O-])c2ccccc2[n+]1[O-] [CARBADOX]
MIC ([1]; LPM pH 5.8): 25 µM (≈ 6.56 µg/mL) | MIC ([1]; MHB): > 50 µM | MIC ([1]; MOPS glucose minimal medium): 50 µM (≈ 13.1 µg/mL) | intracellular MIC [2]: ≤ 0.78 µM | cytotoxicity (RAW264.7): 15.6%

CCCCCCNC(=O)n1cc(F)c(=O)[nH]c1=O [CARMOFUR]
MIC ([1]; LPM pH 5.8): ≤ 0.78 µM | MIC ([1]; MHB): > 50 µM | MIC ([1]; MOPS glucose minimal medium): ≤ 0.78 µM | intracellular MIC [2]: 1.56 µM | cytotoxicity (RAW264.7): 13.7%

C=CC1=C(C(=O)O)N2C(=O)[C@@H](NC(=O)/C(=N\O)c3csc(N)n3)[C@H]2SC1 [CEFDINIR]
MIC ([1]; LPM pH 5.8): ≤ 0.78 µM | MIC ([1]; MHB): ≤ 0.78 µM | MIC ([1]; MOPS glucose minimal medium): ≤ 0.78 µM | intracellular MIC [2]: > 50 µM | cytotoxicity (RAW264.7): 19.4%

CO/N=C(\C(=O)N[C@@H]1C(=O)N2C(C(=O)OCOC(=O)C(C)(C)C)=C(/C=C\c3scnc3C)CS[C@H]12)c1csc(N)n1 [CEFDITORIN PIVOXIL]
MIC ([1]; LPM pH 5.8): 50 µM (≈ 31 µg/mL) | MIC ([1]; MHB): 50 µM (≈ 31 µg/mL) | MIC ([1]; MOPS glucose minimal medium): 25 µM (≈ 15.5 µg/mL) | intracellular MIC [2]: > 50 µM | cytotoxicity (RAW264.7): 21%

CO/N=C(\C(=O)N[C@@H]1C(=O)N2C(C(=O)O)=C(C[N+]3(C)CCCC3)CS[C@H]12)c1csc(N)n1 [CEFEPIME HYDROCHLORIDE]
MIC ([1]; LPM pH 5.8): ≤ 0.78 µM | MIC ([1]; MHB): ≤ 0.78 µM | MIC ([1]; MOPS glucose minimal medium): ≤ 0.78 µM | intracellular MIC [2]: ≤ 0.78 µM | cytotoxicity (RAW264.7): 15.4%

CO/N=C(\C(=O)N[C@@H]1C(=O)N2C(C(=O)O)=C(CSc3nnnn3C)CS[C@H]12)c1csc(N)n1 [CEFMENOXIME HYDROCHLORIDE]
MIC ([1]; LPM pH 5.8): 1.17 µM | MIC ([1]; MHB): ≤ 0.78 µM | MIC ([1]; MOPS glucose minimal medium): ≤ 0.78 µM | intracellular MIC [2]: 1.56 µM | cytotoxicity (RAW264.7): 8.15%

CO/N=C(\C(=O)N[C@@H]1C(=O)N2C(C(=O)O)=C(COC(C)=O)CS[C@H]12)c1csc(N)n1 [CEFOTAXIME SODIUM]
MIC ([1]; LPM pH 5.8): ≤ 0.78 µM | MIC ([1]; MHB): ≤ 0.78 µM | MIC ([1]; MOPS glucose minimal medium): ≤ 0.78 µM | intracellular MIC [2]: ≤ 0.78 µM | cytotoxicity (RAW264.7): 7.17%

CO[C@@]1(NC(=O)C2SC(=C(C(N)=O)C(=O)O)S2)C(=O)N2C(C(=O)O)=C(CSc3nnnn3C)CS[C@@H]21 (stereo not given in full) [CEFOTETAN]
MIC ([1]; LPM pH 5.8): ≤ 0.78 µM | MIC ([1]; MHB): ≤ 0.78 µM | MIC ([1]; MOPS glucose minimal medium): ≤ 0.78 µM | intracellular MIC [2]: 1.56 µM | cytotoxicity (RAW264.7): 7.79%

CC(C)(O/N=C(\C(=O)N[C@@H]1C(=O)N2C(C(=O)[O-])=C(C[n+]3ccccc3)CS[C@H]12)c1csc(N)n1)C(=O)O [CEFTAZIDIME]
MIC ([1]; LPM pH 5.8): ≤ 0.78 µM | MIC ([1]; MHB): 12.5 µM (≈ 6.83 µg/mL) | MIC ([1]; MOPS glucose minimal medium): ≤ 0.78 µM | intracellular MIC [2]: > 50 µM | cytotoxicity (RAW264.7): 20.8%

Nc1nc(/C(=C/CC(=O)O)C(=O)N[C@@H]2C(=O)N3C(C(=O)O)=CCS[C@H]23)cs1 [CEFTIBUTEN]
MIC ([1]; LPM pH 5.8): ≤ 0.78 µM | MIC ([1]; MHB): ≤ 0.78 µM | MIC ([1]; MOPS glucose minimal medium): ≤ 0.78 µM | intracellular MIC [2]: > 50 µM | cytotoxicity (RAW264.7): 21%

CO/N=C(\C(=O)N[C@@H]1C(=O)N2C(C(=O)O)=C(CSC(=O)c3ccco3)CS[C@H]12)c1csc(N)n1 [CEFTIOFUR HYDROCHLORIDE]
MIC ([1]; LPM pH 5.8): ≤ 0.78 µM | MIC ([1]; MHB): ≤ 0.78 µM | MIC ([1]; MOPS glucose minimal medium): ≤ 0.78 µM | intracellular MIC [2]: ≤ 0.78 µM | cytotoxicity (RAW264.7): 15.6%

CO/N=C(\C(=O)N[C@@H]1C(=O)N2C(C(=O)O)=C(CSc3nc(=O)c(O)nn3C)CS[C@H]12)c1csc(N)n1 [CEFTRIAXONE SODIUM TRIHYDRATE]
MIC ([1]; LPM pH 5.8): ≤ 0.78 µM | MIC ([1]; MHB): ≤ 0.78 µM | MIC ([1]; MOPS glucose minimal medium): ≤ 0.78 µM | intracellular MIC [2]: > 50 µM | cytotoxicity (RAW264.7): 19.6%

COc1ccc2cc1Oc1ccc(cc1)C[C@H]1c3c(cc4c(c3Oc3cc5c(cc3OC)CCN(C)[C@@H]5C2)OCO4)CCN1C [CEPHARANTHINE]
MIC ([1]; LPM pH 5.8): > 50 µM | MIC ([1]; MHB): > 50 µM | MIC ([1]; MOPS glucose minimal medium): > 50 µM | intracellular MIC [2]: > 50 µM | cytotoxicity (RAW264.7): 13.1%

CCCCCCCCCCCCCCCC[n+]1ccccc1 [CETYLPYRIDINIUM CHLORIDE]
MIC ([1]; LPM pH 5.8): 12.5 µM | MIC ([1]; MHB): 50 µM | MIC ([1]; MOPS glucose minimal medium): 12.5 µM | intracellular MIC [2]: ≤ 0.78 µM | cytotoxicity (RAW264.7): 63%

O=C(O)CCC(=O)OC[C@@H](NC(=O)C(Cl)Cl)[C@H](O)c1ccc([N+](=O)[O-])cc1 [CHLORAMPHENICOL SODIUM SUCCINATE]
MIC ([1]; LPM pH 5.8): 6.25 µM | MIC ([1]; MHB): 25 µM | MIC ([1]; MOPS glucose minimal medium): 12.5 µM | intracellular MIC [2]: ≤ 0.78 µM | cytotoxicity (RAW264.7): 8.03%

O=C(N[C@H](CO)[C@H](O)c1ccc([N+](=O)[O-])cc1)C(Cl)Cl [CHLORAMPHENICOL]
MIC ([1]; LPM pH 5.8): ≤ 0.78 µM | MIC ([1]; MHB): 12.5 µM (≈ 4.04 µg/mL) | MIC ([1]; MOPS glucose minimal medium): 3.13 µM (≈ 1.01 µg/mL) | intracellular MIC [2]: ≤ 0.78 µM | cytotoxicity (RAW264.7): 8.21%

Cc1nc2ccccc2n1Cc1ccc(Cl)cc1 [CHLORMIDAZOLE]
MIC ([1]; LPM pH 5.8): > 50 µM | MIC ([1]; MHB): > 50 µM | MIC ([1]; MOPS glucose minimal medium): > 50 µM | intracellular MIC [2]: ≤ 0.78 µM | cytotoxicity (RAW264.7): 12.9%

CC(C)NC(=N)NC(=N)Nc1ccc(Cl)cc1 [CHLOROGUANIDE HYDROCHLORIDE]
MIC ([1]; LPM pH 5.8): > 50 µM | MIC ([1]; MHB): > 50 µM | MIC ([1]; MOPS glucose minimal medium): > 50 µM | intracellular MIC [2]: > 50 µM | cytotoxicity (RAW264.7): 6.72%

Oc1c(Cl)cc(Cl)c2cccnc12 [CHLOROXINE]
MIC ([1]; LPM pH 5.8): ≤ 0.78 µM | MIC ([1]; MHB): 25 µM (≈ 5.35 µg/mL) | MIC ([1]; MOPS glucose minimal medium): 25 µM (≈ 5.35 µg/mL) | intracellular MIC [2]: > 50 µM | cytotoxicity (RAW264.7): 20.5%
